These results are taken from patent US20200113852A1, “METHODS OF PATIENT SELECTION AND TREATING TRXR- OR PRDX-OVEREXPRESSED CANCERS” (TRIACT THERAPEUTICS, INC., priority 2017, published 2020).

For series [1], the target named is T1, human recombinant glutathione S-transferase pi (GSTP1) (Homo sapiens, UniProt P09211).
T1 construct: purchased Acris
The series can be described thus: In vitro Iniparib-glutathione conjugation. The class given is biochemical. The note with it: 30 μM, 1 mM GSH, absence of GSTP1. As for the experimental part:
(§1) Online solid phase extraction (SPE) was performed using the fully automated Spark Holland Symbiosis™ (Emmen, The Netherlands) in eXtraction Liquid Chromatography (XLC) mode. The Symbiosis™ has previously been described in detail (18). HySphere™ C18 HD 7 μm SPE cartridges were used (Spark Holland). Each cartridge was initially conditioned with 2 ml methanol+0.5% formic acid (FA) and then equilibrated with 2 ml water+0.5% FA, both at flow-rates of 4 ml/min. Sample (25 μl) was aspirated and loaded onto the cartridge with 1 ml water+0.5% FA at a flow-rate of 1 ml/min. […] After elution, the right clamp was washed successively with 2 ml water+0.5% FA, 2 ml methanol+0.5% FA and 2 ml water+0.5% FA at 4 ml/min. […] The mobile phase composition was returned to starting conditions over 1 min and maintained during 6 min for column equilibration. The total run time was 27 min. Mass spectrometry was performed using the Thermo® TSQ Quantum Discovery Max in electrospray positive ionization mode (Thermo, US) with the following parameters: capillary voltage=4.0 kV, capillary temperature=300° C., sheath gas pressure=40, auxiliary gas pressure=5.

Series [2] has as its system several cancer cell lines. Description: Cytotoxic activity on several cancer cell lines (preliminary screening). The following applies: all cell lines.
The target in series [3] is T2, recombinant human GAPDH (Homo sapiens, UniProt P04406).
T2 construct: purchased Acris
Description: In vitro modification of GAPDH by Iniparib and I-NOBA. The class given is binding. As for the experimental part: For biochemical analysis, recombinant human GAPDH (Acris) was first reduced by a 15,000-fold excess of DTT at 56° C. for 30 min, the reducing agent being removed thereafter by chloroform/methanol precipitation. […] Afterwards the samples were submitted or not to another reducing step with 25 mM DTT (56° C., 30 min), and after removal of DTT by chloroform/methanol precipitation, biotinylation of free cysteine sulfhydryl groups of GAPDH was performed with HPDP-biotin (N-[6-(Biotinamido)hexyl]-3′-(2′-pyridyldithio)propionamide) at […] for 2 h at 20° C.
Sample mixtures were then reduced or not with 25 mM DTT (56° C., 30 min). Intact molecular weights were measured by mass spectrometry. Liquid chromatography-electrospray ionization mass spectrometry (LC/MS) was carried out using LTQ-Orbitrap Elite mass spectrometer (Thermo Fisher Scientific) coupled to a Famos Autosampler and an Ultimate Pump (LC-Packing, Dionex). Reverse phase chromatography was performed with a binary buffer system consisting of 0.2% formic acid (buffer A) and 80% acetonitrile in 0.2% formic acid (buffer B). After dilution to 1 pmole/μl in 0.2% formic acid, 1 μl of samples were loaded on a Poros 1 R/H column (75 μm×15 cm, Dionex). […] Mass spectra (m/z 500-2,000) were acquired in the positive ITMS mode with 5 μscans accumulation, a target value of 30,000 and a maximum injection time of 100 ms. The acquired raw files were converted in MassLynx format (Waters) using an home-made program and then were deconvoluted using MaxEnt software (Waters).

The subject of series [4] is MDA-MB-453 cells. The series can be described thus: Iniparib metabolites release, XLC-MS/MS of incubation media. The class given is in vitro ADME, human. Details: unit not given beside the values. On the procedure:
as §1
(§2) All values are expressed as means±SEM of three independent experiments. ND., non detectable.

Series [5] concerns HCT116 cells. The description is as above. The class given is in vitro ADME, human. Details: unit not given beside the values. As for the experimental part:
as §1, §2

Series [6] relates to GSH in HCT116 and MDA-MB-453 cell lines. The series can be described thus: GSH depletion with BSO (GSH-Glo glutathione assay). The note with it: 1 mM BSO for 18 h, both cell lines. The class given is cell-based, human. As for the experimental part: Cells were seeded (96 well plates) at increasing densities, the highest density corresponding to that used for viability studies. […] GSH amount was measured thereafter using GSH-Glo™ glutathione assay.

A short description of series [7]: Phase I clinical trial GBM, pharmacokinetics. The note with it: for Metabolite/iniparib concentration ratio: arithmetic average±SD; for Cmax: geometric mean±SD, plasma. The class given is in vivo, human. The source says: No cytochrome P450-inducing anticonvulsants. However, Gliadel was permitted.
Dosing is IV 2×/week continuous.

Series [8] deals with Trx, JNK, p38MAPK, PARP in HCT116 cells. The series can be described thus: Cell death signaling western blots (Trx oxidation, phospho-JNK, phospho-p38MAPK, cleaved-PARP). For orientation: A western blot detects proteins with antibodies after separation by electrophoresis.
Description: Cells extracts were analyzed by SDS-PAGE either under reducing conditions or under non-reducing conditions in the case of Trx blot followed by blots anti-phospho-JNK, anti-phospho-p38MAPK, anti-cleaved-PARP and anti-Trx. Results are representative of three independent experiments.
After 2 h at 4° C., lysates were clarified by centrifugation and protein amounts were measured using the BCA assay (Pierce, Thermo scientific).
Equal amounts of proteins were resolved by SDS-PAGE under either non-reducing or reducing (5% 2-mercaptoethanol, 20 min at 60° C.) conditions, using 4-20% gels (Novex, Invitrogen), then subjected to semi-dry electrophoretic transfer onto nitrocellulose membranes.
Where [9] appears, read: MDA-MB-453 w BSO, 1 h after 100 μM Iniparib.
Where [10] appears, read: MDA-MB-453 w BSO, 5 h after 100 μM Iniparib.
Setting [11] is: MDA-MB-453 w BSO, 24 h after 100 μM Iniparib.
The mark [12] stands for this setting: MDA-MB-453 w/o BSO, 24 h after 100 μM Iniparib.
Where [13] appears, read: HCT116 w BSO, 1 h after 100 μM Iniparib.
The mark [14] stands for this setting: HCT116 w BSO, 5 h after 100 μM Iniparib.
Where [15] appears, read: HCT116 w BSO, 24 h after 100 μM Iniparib.

Each structure is given as a SMILES string. Read-outs that look alike come from different tables or passages of the source.

T2 sequence (P04406 whole entry): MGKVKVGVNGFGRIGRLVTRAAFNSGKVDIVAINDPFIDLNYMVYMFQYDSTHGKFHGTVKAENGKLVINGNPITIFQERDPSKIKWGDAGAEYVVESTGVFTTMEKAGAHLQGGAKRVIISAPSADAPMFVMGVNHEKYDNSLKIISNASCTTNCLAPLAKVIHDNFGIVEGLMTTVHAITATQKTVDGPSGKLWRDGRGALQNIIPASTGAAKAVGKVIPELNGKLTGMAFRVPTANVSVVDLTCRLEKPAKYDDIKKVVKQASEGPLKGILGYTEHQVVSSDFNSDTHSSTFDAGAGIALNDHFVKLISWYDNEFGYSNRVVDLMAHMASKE
T1 sequence (P09211 whole entry): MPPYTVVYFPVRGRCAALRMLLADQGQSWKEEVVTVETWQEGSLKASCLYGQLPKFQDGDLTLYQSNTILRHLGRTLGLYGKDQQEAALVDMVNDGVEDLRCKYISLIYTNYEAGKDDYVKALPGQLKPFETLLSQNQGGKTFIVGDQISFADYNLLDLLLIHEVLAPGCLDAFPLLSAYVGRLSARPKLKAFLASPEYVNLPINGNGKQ

Turning to `NC(=O)c1ccc(I)c(N=O)c1` [I-NOBA], in series [1], the “reaction with GSH” value is on record as “reacted with GSH”. Further, in series [2], the “cytotoxic activity relative to Iniparib” value is given as “more active than Iniparib”. In addition, the “covalent modification of GAPDH (MS analysis)” value in series [3] (purified GAPDH incubated with compound) is “formation of protein adducts”. Further, the “blocking of free thiol groups in GAPDH” value in series [3] (purified GAPDH, biotin-HPDP labeling, streptavidin-HRP blot) is “completely blocked”. Besides, the “Iniparib and metabolites in incubation media” value (shortened to “Iniparib and metabolites”) in series [4] (setting [9]) is 0.6 ± 0.1; in series [4] (setting [10]) it was 3.5 ± 0.7; in series [4] (setting [11]), 2.9 ± 1.0; in series [4] (setting [12]) it was 0.2 ± 0.1; in series [5] (setting [13]) it was 4.4 ± 0.0; in series [5] (setting [14]), 14.6 ± 0.1. Further, in series [5] (setting [15]), the “Iniparib and metabolites” value turned out to be 26.5 ± 2.9.

In the case of `CCCCS(=N)(=O)CCC(N)C(=O)O` [BSO, L-buthionine sulfoximine], the GSH content entry in series [6] is reported as “below 5 % of controls”.

Usually Cmax stands for the highest concentration seen after dosing. On to `NC(=O)c1ccc(I)c(N)c1` [I-ABM, 4-iodo-3 aminobenzamide], for which the Metabolite/iniparib concentration ratio in series [7] (5.1 mg/kg) is listed as 1.1 ± 0.6%; in series [7] (6.1 mg/kg), 0.9 ± 0.6%; in series [7] (6.8 mg/kg) it was 1.1 ± 0.9%; in series [7] (8.0 mg/kg), 0.3 ± 0.1%; in series [7] (8.6 mg/kg), 0.8 ± 0.6%; in series [7] (9.5 mg/kg), 0.8 ± 0.6%. Also, the Cmax in series [7] (human, 5.1 mg/kg IV 2×/week, read-out: Cmax) was determined as 0.0057 ± 0.0041 µg/mL; in series [7] (human, 6.1 mg/kg IV 2×/week, read-out: Cmax), 0.0072 ± 0.0018 µg/mL; in series [7] (human, 6.8 mg/kg IV 2×/week, read-out: Cmax), 0.0084 ± 0.0037 µg/mL; in series [7] (human, 8.0 mg/kg IV 2×/week, read-out: Cmax) it was 0.0103 ± 0.0029 µg/mL; in series [7] (human, 8.6 mg/kg IV 2×/week, read-out: Cmax) it was 0.0097 ± 0.0024 µg/mL; in series [7] (human, 9.5 mg/kg IV 2×/week, read-out: Cmax) it was 0.0136 ± 0.0053 µg/mL. Also, the “Iniparib and metabolites” value in series [4] (setting [9]) is 0.3 ± 0.1; in series [4] (setting [10]), 1.4 ± 0.1; in series [4] (setting [11]) it was 5.4 ± 0.2; in series [4] (MDA-MB-453 w/o BSO, 1 h after 100 μM Iniparib), 0.2 ± 0.0; in series [4] (MDA-MB-453 w/o BSO, 5 h after 100 μM Iniparib), 0.5 ± 0.2; in series [4] (setting [12]), 2.6 ± 0.2. Moreover, the “Iniparib and metabolites” value is listed as 0.3 ± 0.1 in series [5] (setting [13]); 1.1 ± 0.3 in series [5] (setting [14]); 4.4 ± 1.2 in series [5] (setting [15]); 0.2 ± 0.1 in series [5] (HCT116 w/o BSO, 1 h after 100 μM Iniparib); 0.4 ± 0.1 in series [5] (HCT116 w/o BSO, 5 h after 100 μM Iniparib); 0.5 ± 0.2 in series [5] (HCT116 w/o BSO, 24 h after 100 μM Iniparib).

Turning to `CN[C@@H]1C[C@H]2O[C@@](C)([C@@H]1OC)n1c3ccccc3c3c4c(c5c6ccccc6n2c5c31)C(=O)NC4` [staurosporine, reference compound], the PARP1 cleavage result in series [8] (GSH-depleted HCT116) is “triggered PARP1 cleavage”. Moreover, the Trx oxidation result in series [8] (GSH-depleted HCT116, 7 h or 24 h, 100 μM Iniparib, 1 μM Auranofin, 100 nM Staurosporin) was “unable to induce oxidation of Trx”.

Turning to `NC(=O)c1ccc(I)c(NO)c1` [I-HABM], the “Iniparib and metabolites” value in series [5] (setting [15]) is recorded as 0.1 ± 0.0.

For `Nc1cc(C(=O)O)ccc1I` [IABA], the Cmax in series [7] (5.1 mg/kg IV 2×/week) came out at 0.0166 ± 0.0052 µg/mL; in series [7] (6.1 mg/kg IV 2×/week), 0.0149 ± 0.0083 µg/mL; in series [7] (6.8 mg/kg IV 2×/week), 0.0199 ± 0.0066 µg/mL; in series [7] (8.0 mg/kg IV 2×/week) it was 0.0145 ± 0.015 µg/mL; in series [7] (8.6 mg/kg IV 2×/week), 0.0315 ± 0.0104 µg/mL; in series [7] (9.5 mg/kg IV 2×/week), 0.0198 ± 0.014 µg/mL. In addition, the Metabolite/iniparib concentration ratio in series [7] (5.1 mg/kg) came out at 3.0 ± 2.0%; in series [7] (6.1 mg/kg), 2.0 ± 1.5%; in series [7] (6.8 mg/kg), 2.4 ± 1.4%; in series [7] (8.0 mg/kg), 0.7 ± 0.7%; in series [7] (8.6 mg/kg) it was 2.5 ± 1.4%; in series [7] (9.5 mg/kg), 2.0 ± 2.0%.
